Assay results reported in patent US9603889B2, “IAP antagonists” (BRISTOL-MYERS SQUIBB COMPANY, priority 2012, dated 2017).
Where a name gives a salt, the structure may show the parent alone.

biological target: XIAP BIR3 (N-His-Tb-BIR3(241-356, XIAP)) (Homo sapiens (Human), UniProt P98170); assay type: binding; details: 130 nM N-His-Tb-BIR3(241-356, XIAP), 1.4 nM fluoresceinated modified SMAC peptide, 60 minutes room temperature; read-out: XIAP BIR3 FPA IC50
Sequence (P98170 241-356): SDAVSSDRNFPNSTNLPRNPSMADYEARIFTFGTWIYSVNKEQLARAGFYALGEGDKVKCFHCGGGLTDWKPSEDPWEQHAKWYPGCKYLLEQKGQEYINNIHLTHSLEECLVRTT

Row | Compound | IC50 [nM]
1 | CN[C@@H](C)C(=O)N[C@H](C(=O)N1Cc2ccccc2C[C@H]1CN(Cc1cccc2ccccc12)C(=O)c1ccc(C(=O)N[C@H]2C[C@@H](C(=O)N[C@@H]3CCCc4ccccc43)N(C(=O)[C@@H](NC(=O)[C@H](C)NC)C(C)(C)C)C2)cc1)C(C)(C)C [Example 34, N^1-(((S)-2-((S)-3,3-Dimethyl-2-((S)-2-(methylamino)propanamido)butanoyl)-1,2,3,4-tetrahydro-isoquinolin-3-yl)methyl)-N^4-((3S,5S)-1-((S)-3,3-dimethyl-2-((S)-2-(methylamino)propanamido)butanoyl)-5-(((R)-1,2,3,4-tetrahydro-naphthalen-1-yl)carbamoyl)pyrrolidin-3-yl)-N^1-(naphthalen-1-ylmethyl) terephthalamide] | 160
2 | CN[C@@H](C)C(=O)N[C@H](C(=O)N1Cc2ccccc2C[C@H]1CN(Cc1cccc(C)c1C)C(=O)c1ccc(C(=O)Nc2ccc3c(c2)CN(C(=O)[C@@H](NC(=O)[C@H](C)NC)C(C)(C)C)[C@H](C(=O)N[C@@H]2CCCc4ccccc42)C3)cc1)C(C)(C)C [Example 35, N^1-(((S)-2-((S)-3,3-Dimethyl-2-((S)-2-(methylamino)propanamido)butanoyl)-1,2,3,4-tetra-hydroisoquinolin-3-yl)methyl)-N^4-((S)-2-((S)-3,3-dimethyl-2-((S)-2-(methylamino)propanamido)butanoyl)-3-(((R)-1,2,3,4-tetrahydro-naphthalen-1-yl)carbamoyl)-1,2,3,4-tetra-hydroisoquinolin-7-yl)-N^1-(2,3-dimethylbenzyl) terephthalamide] | 230
3 | CN[C@@H](C)C(=O)N[C@H](C(=O)N1Cc2ccccc2C[C@H]1CN(Cc1cccc(C)c1C)C(=O)c1ccc(C(=O)N[C@H]2C[C@@H](C(=O)N[C@@H]3CCCc4ccccc43)N(C(=O)[C@@H](NC(=O)[C@H](C)NC)C(C)(C)C)C2)cc1)C(C)(C)C [Example 36, N^1-(((S)-2-((S)-3,3-Dimethyl-2-((S)-2-(methylamino)propanamido)butanoyl)-1,2,3,4-tetrahydro-isoquinolin-3-yl)methyl)-N^4-((3S,5S)-1-((S)-3,3-dimethyl-2-((S)-2-(methylamino)propanamido)butanoyl)-5-(((R)-1,2,3,4-tetrahydro-naphthalen-1-yl)carbamoyl)pyrrolidin-3-yl)-N^1-(2,3-dimethyl-benzyl) terephthalamide] | 90
4 | CN[C@@H](C)C(=O)N[C@H](C(=O)N1Cc2ccccc2C[C@H]1CN(C(=O)c1ccc(C(=O)N[C@H]2C[C@@H](C(=O)N[C@@H]3CCCc4ccccc43)N(C(=O)[C@@H](NC(=O)[C@H](C)NC)C(C)(C)C)C2)cc1)[C@H](C)c1ccccc1F)C(C)(C)C [Example 37, N^1-(((S)-2-((S)-3,3-Dimethyl-2-((S)-2-(methylamino)propanamido)butanoyl)-1,2,3,4-tetrahydro-isoquinolin-3-yl)methyl)-N^4-((3S,5S)-1-((S)-3,3-dimethyl-2-((S)-2-(methylamino)propanamido)butanoyl)-5-(((R)-1,2,3,4-tetrahydro-naphthalen-1-yl)carbamoyl)pyrrolidin-3-yl)-N^1-((R)-1-(2-fluorophenyl)ethyl) terephthalamide] | 230
5 | CN[C@@H](C)C(=O)N[C@H](C(=O)N1Cc2ccccc2CC1C(=O)N(CC1(C(=O)NC2C[C@@H](C(=O)NC3CCCc4ccccc43)N(C(=O)[C@@H](NC(=O)[C@H](C)NC)C(C)(C)C)C2)CC1)[C@@H](COC)c1ccccc1)C(C)(C)C (stereo partly drawn) [Example 38, (S)-2-((S)-3,3-Dimethyl-2-((S)-2-(methylamino)propanamido)butanoyl)-N-((1-(((3S,5S)-1-((S)-3,3-dimethyl-2-((S)-2-(methylamino)propanamido)butanoyl)-5-(((R)-1,2,3,4-tetrahydronaphthalen-1-yl)carbamoyl)pyrrolidin-3-yl)carbamoyl)cyclopropyl)methyl)-N-((S)-2-methoxy-1-phenylethyl)-1,2,3,4-tetrahydroisoquinoline-3-carboxamide, 2 TFA] | 60
6 | CN[C@@H](C)C(=O)N[C@H](C(=O)N1C[C@@H](NC(=O)CCCN(C(=O)[C@@H]2Cc3ccccc3CN2C(=O)[C@@H](NC(=O)[C@H](C)NC)C(C)(C)C)[C@H](C)c2ccccc2F)C[C@H]1C(=O)N[C@@H]1CCCc2ccccc21)C(C)(C)C [Example 41, (S)-2-((S)-3,3-Dimethyl-2-((S)-2-(methylamino)propanamido)butanoyl)-N-(4-(((3S,5S)-1-((S)-3,3-dimethyl-2-((S)-2-(methylamino)propanamido)butanoyl)-5-(((R)-1,2,3,4-tetrahydronaphthalen-1-yl)carbamoyl)pyrrolidin-3-yl)amino)-4-oxobutyl)-N-((R)-1-(2-fluorophenyl)ethyl)-1,2,3,4-tetrahydroisoquinoline-3-carboxamide] | 60
7 | CN[C@@H](C)C(=O)N[C@H](C(=O)N1CC(NC(=O)C2CC2CN(C(=O)[C@@H]2Cc3ccccc3CN2C(=O)[C@@H](NC(=O)[C@H](C)NC)C(C)(C)C)[C@H](C)c2ccccc2F)C[C@H]1C(=O)NC1CCCc2ccccc21)C(C)(C)C (stereo partly drawn) [Example 42, (3S)-2-((S)-3,3-Dimethyl-2-((S)-2-(methylamino)propanamido)butanoyl)-N-((2-(((3S,5S)-1-((S)-3,3-dimethyl-2-((S)-2-(methylamino)propanamido)butanoyl)-5-(((R)-1,2,3,4-tetrahydronaphthalen-1-yl)carbamoyl)pyrrolidin-3-yl)carbamoyl)cyclopropyl)methyl)-N-((R)-1-(2-fluorophenyl)ethyl)-1,2,3,4-tetrahydroisoquinoline-3-carboxamide] | 70
8 | CN[C@@H](C)C(=O)N[C@H](C(=O)N1C[C@@H](NC(=O)C2(CN(C(=O)[C@@H]3Cc4ccccc4CN3C(=O)[C@@H](NC(=O)[C@H](C)NC)C(C)(C)C)[C@H](C)c3cccc(F)c3F)CC2)C[C@H]1C(=O)N[C@@H]1CCCc2ccccc21)C(C)(C)C [Example 43, (S)-N-((R)-1-(2,3-Difluorophenyl)ethyl)-2-((S)-3,3-dimethyl-2-((S)-2-(methylamino)propanamido)butanoyl)-N-((1-(((3S,5S)-1-((S)-3,3-dimethyl-2-((S)-2-(methylamino)propanamido)butanoyl)-5-(((R)-1,2,3,4-tetrahydronaphthalen-1-yl)carbamoyl)pyrrolidin-3-yl)carbamoyl)cyclopropyl)methyl)-1,2,3,4-tetrahydroisoquinoline-3-carboxamide] | 180
